Tests used:
Type in all cases: in vivo, rat
Wistar rats [1] = test: Acute survival study after LPS
Procedure: (§1) The animal experiment is approved by the Animal Care and Use Committee at the Kaohsiung Medical University. The male Wistar rats, weighing 250-350 g, are provided by the National Laboratory Animal Breeding and Research Center (Taipei, Taiwan). The rats are housed under conditions of constant temperature and controlled illumination (light regime of 12 h light and 12 h darkness). The rats are allowed food and water ad libitum. They are anesthetized with an intraperitoneal (i.p.) injection of pentobarbital sodium (50 mg/kg). Following tracheal cannulation, systemic arterial blood pressure and heart rate are recorded from the femoral artery with a pressure transducer (Spectramed, Model P10EZ, USA). Body temperature is maintained at 37° C. by an electric heating pad. A femoral vein is cannulated for the administration of LPS (E. coli serotype 026:B6), HBCM, baicalin, or dexamethasone (DEXA), respectively. The rats are injected intravenously with either saline (0.1 ml/kg) or LPS (10 mg/kg) for control and experimental purposes, respectively. All the animals are assigned to one of the following groups: saline only, LPS/saline, LPS/HBCM (75 mg/kg), LPS/baicalin (1.5 mg/kg), and LPS/DEXA (0.5 mg/kg) groups. LPS is injected at a dose of 10 mg/kg, after 10 min, HBCM, baicalin and DEXA are given, respectively.
A single injection of LPS (10 mg/kg, i.v.) leads to a biphasic arterial hypotension: an initial and transient decrease in arterial mean blood pressure (about 10 min), followed by a delayed and prolonged hypotension. The HBCM (75 mg/kg, i.v.), baicalin (1.5 mg/kg, i.v.) and DEXA (0.5 mg/kg, i.v.) are administrated 10 min after LPS administration. The used dose of baicalin is according to the content of baicalin in HBCM by the HPLC method. Separate groups are used for acute survival study (n=10 each), lung tissue sampling (n=10 each), and blood sampling (n=10 each). […]
The animals without pulmonary are monitored per 30 minutes for 7 hours after LPS administration. The blood pressure (BP) changes were recorded within 5 hours after LPS injection. […]

Wistar rats [2] = test: Attenuation of LPS-induced arterial hypotension (post-treatment); conditions: HBCM 75 mg/kg, baicalin 1.5 mg/kg, DEXA 0.5 mg/kg i.v. 10 min after LPS 10 mg/kg i.v.; FIG. 3
Procedure: as §1, with “given, respectively. […]” for “given, respectively.”

Wistar rats [3] = test: LPS-induced lung edema (wet/dry weight ratio); conditions: 5 hours after LPS; HBCM, baicalin, DEXA given 10 min after LPS; FIG. 7
Procedure: as §1, with “The rats are injected intravenously with either saline (0.1 ml/kg) or LPS (10 mg/kg) for control and experimental purposes, respectively. All the animals are assigned to one of the following groups: saline only, LPS/saline, LPS/HBCM (75 mg/kg), LPS/baicalin (1.5 mg/kg), and LPS/DEXA (0.5 mg/kg) groups. LPS is injected at a dose of 10 mg/kg, after 10 min, HBCM, baicalin and DEXA are given, respectively.” left out
The water content of the lungs is determined by calculating the wet/dry weight ratio of lung tissues at 5 hours after LPS administration. […] The dry weight is determined after the lung is dried at 80° C. for 72 hours, and the edema index (wet/dry weight ratio) is calculated by dividing the wet weight by the dry weight. The edema index indicates the water content of the lung, which is determined by calculating the wet/dry weight ratio of lung tissues at 5 hours after LPS administration.

iNOS = test: LPS-induced iNOS in lung tissues (western blot); conditions: 5 h after LPS 10 mg/kg; HBCM 75, baicalin 1.5, DEXA 0.5 mg/kg post-treatment; FIG. 8
Procedure: as §1, with “All the animals are assigned to one of the following groups: saline only, LPS/saline, LPS/HBCM (75 mg/kg), LPS/baicalin (1.5 mg/kg), and LPS/DEXA (0.5 mg/kg) groups. LPS is injected at a dose of 10 mg/kg, after 10 min, HBCM, baicalin and DEXA are given, respectively.” left out
(§2) The HBCM, baicalin and DEXA are post-treated 10 minutes after the administration of LPS. […] The expression of each protein is detected by enhanced chemiluminescence using Hyperfilm and ECL reagent (Amersham, UK).

[4] = tested on: phosphorylated p38 MAP kinase; test: LPS-induced phosphorylated p38 MAP kinase in lung tissues (western blot); conditions: 5 h after LPS 10 mg/kg; HBCM 75, baicalin 1.5, DEXA 0.5 mg/kg post-treatment; FIG. 8
Procedure: as §1, with “All the animals are assigned to one of the following groups: saline only, LPS/saline, LPS/HBCM (75 mg/kg), LPS/baicalin (1.5 mg/kg), and LPS/DEXA (0.5 mg/kg) groups. LPS is injected at a dose of 10 mg/kg, after 10 min, HBCM, baicalin and DEXA are given, respectively.” left out
as §2

TGF-β = test: LPS-induced TGF-β in lung tissues (western blot); conditions: 5 h after LPS 10 mg/kg; HBCM 75, baicalin 1.5, DEXA 0.5 mg/kg post-treatment; FIG. 8
Procedure: as §1, with “All the animals are assigned to one of the following groups: saline only, LPS/saline, LPS/HBCM (75 mg/kg), LPS/baicalin (1.5 mg/kg), and LPS/DEXA (0.5 mg/kg) groups. LPS is injected at a dose of 10 mg/kg, after 10 min, HBCM, baicalin and DEXA are given, respectively.” left out
as §2

ICAM-1 = test: LPS-induced ICAM-1 in lung tissues (western blot); conditions: 5 h after LPS 10 mg/kg; HBCM 75, baicalin 1.5, DEXA 0.5 mg/kg post-treatment; FIG. 8
Procedure: as §1, with “All the animals are assigned to one of the following groups: saline only, LPS/saline, LPS/HBCM (75 mg/kg), LPS/baicalin (1.5 mg/kg), and LPS/DEXA (0.5 mg/kg) groups. LPS is injected at a dose of 10 mg/kg, after 10 min, HBCM, baicalin and DEXA are given, respectively.” left out
as §2

TNF-α = test: LPS-induced plasma TNF-α immunoreactivity (post-treatment, ELISA); conditions: LPS 10 mg/kg i.v.; HBCM 75, baicalin 1.5, DEXA 0.5 mg/kg 10 min after LPS; FIG. 9
Procedure: as §1, with “given, respectively. […]” for “given, respectively.”

IL-1β = test: LPS-induced plasma IL-1β immunoreactivity (post-treatment, ELISA); conditions: LPS 10 mg/kg i.v.; post-treatment 10 min after LPS; up to 5 hours; FIG. 9
Procedure: as §1, with “given, respectively. […]” for “given, respectively.”

MCP-1 = test: LPS-induced plasma MCP-1 immunoreactivity (post-treatment, ELISA); conditions: LPS 10 mg/kg i.v.; post-treatment 10 min after LPS; up to 5 hours; FIG. 9
Procedure: as §1, with “given, respectively. […]” for “given, respectively.”

Row | SMILES | time all the rats survive (Wistar rats [1]; LPS 10 mg/kg, DEXA 0.5 mg/kg i.v. 10 min after LPS, n=10) | LPS-induced prolonged arterial hypotension (Wistar rats [2]) | survival for 7 hours (Wistar rats [1]; LPS 10 mg/kg, HBCM 75 mg/kg or baicalin 1.5 mg/kg i.v. 10 min after LPS, n=10) [%] | survival rate compared with LPS/saline group (Wistar rats [1]; post-treatment 10 min after LPS 10 mg/kg, FIG. 6) | LPS-induced lung edema (wet/dry weight ratio) (Wistar rats [3]) | LPS-induced iNOS expression in lung tissues (iNOS) | LPS-induced phosphorylated p38 MAP kinase expression in lung tissues [4] | LPS-induced TGF-β expression in lung tissues (TGF-β) | LPS-induced ICAM-1 expression in lung tissues (ICAM-1) | elevation of plasma TNF-α vs LPS/saline group (TNF-α) | elevation of plasma IL-1β vs LPS/saline group (IL-1β) | elevation of plasma MCP-1 vs LPS/saline group (MCP-1)
1 | C[C@@H]1C[C@H]2[C@@H]3CCC4=CC(=O)C=C[C@]4(C)[C@@]3(F)[C@@H](O)C[C@]2(C)[C@@]1(O)C(=O)CO [DEXA, dexamethasone] | more than 7 hours | – | – | – | – | – | – | – | – | – | – | –
2 | O=C(O)[C@H]1O[C@@H](Oc2cc3oc(-c4ccccc4)cc(=O)c3c(O)c2O)[C@H](O)[C@@H](O)[C@@H]1O [baicalin] | – | significantly attenuates | 90 | significantly better survival rate | significantly attenuates | significant inhibition | significant inhibition | significant inhibition | significant inhibition | significantly lower | lower | lower
